PMC8448819, “The Arabidopsis MIK2 receptor elicits immunity by sensing a conserved signature from phytocytokines and microbes” (Nature Communications, 2021)

Experiments:
[1] = test system: Arabidopsis WT (Col-0) seedlings; assay type: in vivo, Arabidopsis thaliana
[2] = test system: Arabidopsis WT seedling roots; assay: Microscopy of root browning and root meristems, WT; assay type: in vivo, Arabidopsis thaliana
MIK2-BAK1 association = assay: Co-immunoprecipitation MIK2-BAK1; assay type: cell-based, Arabidopsis thaliana; settings: co-IP
Procedure: For co-IP assays in protoplasts, protoplasts were co-transfected with pHBT-35S::MIK2-HA and pHBT-35S::BAK1-FALG or pHBT-35S::SERK4-FLAG at 50 μg DNA for 500 μL protoplasts at the density of 2 × 10^5/mL for each sample and were incubated for 12 h. After treatment with 1 µM SCOOP peptides for 15 min, samples were collected by centrifugation at 200 × g for 2 min and lysed in 300 μL IP buffer (20 mM Tris-HCl, pH 7.5, 100 mM NaCl, 1 mM EDTA, 2 mM DTT, 10% [v/v] Glycerol, 0.5% [v/v] Triton X-100 and protease inhibitor cocktail from Sigma) by vortexing. After centrifugation at 10,000 × g for 10 min at 4 °C, 30 μL of supernatant was collected for input controls. The remaining supernatant was pre-incubated with protein-G-agarose beads at 4 °C for 1 h with gentle shaking at […] on a rocker. IP was carried out with α-FLAG agarose for 3 h at 4 °C. Beads were collected by 500 × g centrifugation for 2 min and washed three times with washing buffer (20 mM Tris-HCl, pH 7.5, 100 mM NaCl, 1 mM EDTA, 0.1% [v/v] Triton X-100) and once with 50 mM Tris-HCl, pH 7.5. Immunoprecipitated proteins and input proteins were analyzed by immunoblotting with α-HA (1:3000; Roche, Cat # 12013819001) or α-FLAG antibodies (1:3000; Sigma-Aldrich, Cat # A8592).
For co-IP assays in transgenic seedlings, leaves of 4-week-old pMIK2::MIK2-GFP transgenic plants were hand-inoculated with 1 μM SCOOP10^B or SCOOP12 and were treated for 30 min, followed by total protein isolation with extraction buffer (50 mM Tris-HCl, pH 7.5, 150 mM NaCl, 1% [v/v] NP-40 and 1:200 protease inhibitor cocktail from Sigma). Co-IP was carried out the same as for co-IP with protoplasts except that GFP-Trap agarose beads (Chromotek) were used instead. Immunoprecipitated proteins and input proteins were analyzed by immunoblotting with α-GFP (1:3500; Roche, Cat # 11814460001) or α-BAK1 antibodies (1:2000)[64].

[3] = test system: WRKY30, WRKY33 and CYP81F2 expression, mik2 seedlings; assay: RT-qPCR of defense genes, mik2 mutants; assay type: in vivo, Arabidopsis thaliana
mik2-1 seedling roots = assay: Microscopy of root meristems, mik2-1; assay type: in vivo, Arabidopsis thaliana; settings: mik2-1, 1 µM, 48 h
[4] = test system: WRKY30, WRKY33 and CYP81F2 expression, WT seedlings; assay: RT-qPCR of defense genes, WT; assay type: in vivo, Arabidopsis thaliana
BIK1 = BIK1 phosphorylation assay; assay type: cell-based, Arabidopsis thaliana; settings: protoplasts expressing BIK1-HA, 1 μM, 15 min, mobility shift
Procedure: WT protoplasts were transfected with pHBT-35S::BIK1-HA for 12 h followed by treatment with 1 μM SCOOP peptides for 15 min.

PNGDIFTGPSGSGHGGGR [SCOOP10B, synthesized SCOOP peptide corresponding to the SxS motif]
root growth retardation, concentration series, WT ([1]; 1 to 100 nM SCOOP10^B): more pronounced with the increased concentrations of SCOOP10^B from 1 to 100 nM
concentration at which still active ([1]; in vivo): 1 nM
root growth inhibition ([1]; in vivo): inhibited root growth to various degrees, with SCOOP10^B and 13 being the most active
root browning ([2]; WT seedlings, prolonged treatment): led to brown roots
root meristem distortion ([2]; WT, 5-day-old seedlings, 1 µM, 48 h, PI staining): distorted root meristems
MIK2-BAK1 association (MIK2-BAK1 association; pMIK2::MIK2-GFP/mik2 leaves, 1 μM, 30 min): stimulated upon the treatment
MIK2-BAK1 association in protoplasts (MIK2-BAK1 association; protoplasts, MIK2-HA and BAK1-FLAG, 15 min): also observed in protoplasts
CYP81F2 expression (Fig. 3i) ([3]; mik2-1, repeat 1): 1.45
CYP81F2 expression (Fig. 3i) ([3]; mik2-1, repeat 2): 1.97
CYP81F2 expression (Fig. 3i) ([3]; mik2-1, repeat 3): 3.18
CYP81F2 expression (Fig. 3i) ([3]; mik2-1, repeat 4): 1.68
CYP81F2 expression (Fig. 3i) ([3]; mik2-2, repeat 1): 1.42
CYP81F2 expression (Fig. 3i) ([3]; mik2-2, repeat 2): 2.13
CYP81F2 expression (Fig. 3i) ([3]; mik2-2, repeat 3): 3.67
CYP81F2 expression (Fig. 3i) ([3]; mik2-2, repeat 4): 5.95
WRKY30, WRKY33 and CYP81F2 expression ([3]; mik2 mutants, 1 µM, 1 h, RT-qPCR): abolished in mik2 mutants
root meristem distortion in mik2-1 (mik2-1 seedling roots): not observed in mik2-1
WRKY30, WRKY33 and CYP81F2 expression ([4]; 1 µM, 1 h, RT-qPCR): upregulation
CYP81F2 expression (Fig. 3i) ([4]; repeat 1): 82.36
CYP81F2 expression (Fig. 3i) ([4]; repeat 2): 146.22
CYP81F2 expression (Fig. 3i) ([4]; repeat 3): 132.08
CYP81F2 expression (Fig. 3i) ([4]; repeat 4): 187.19
BIK1 phosphorylation (BIK1): led to the phosphorylation of BIK1
